Measured values as given in ChEMBL document CHEMBL3044572, “Discovery of 2-(4-cyano-3-trifluoromethylphenyl amino)-4-(4-quinazolinyloxy)-6-piperazinyl(piperidinyl)-s-triazines as potential antibacterial agents” (2012).
Converted amounts (≈) assume the structure as drawn. The source made the active and inactive calls. The calls are words filed in the database; no cut-off is given here.

Experiments:
[1] = tested on: Mycobacterium tuberculosis; test: Antimicrobial activity against Mycobacterium tuberculosis H37Rv by BACTEC MGIT method; format: functional; settings: for MIC: Mycobacterium tuberculosis, H37Rv
Aspergillus niger [2] = test: Antimicrobial activity against Aspergillus niger MTCC 282 by agar streak dilution method; format: functional
Proteus vulgaris [3] = test: Antimicrobial activity against Proteus vulgaris MTCC 1771 by agar streak dilution method; format: functional
Candida albicans [4] = test: Antimicrobial activity against Candida albicans MTCC 183 by paper-disk diffusion method; format: functional
Staphylococcus aureus [5] = test: Antimicrobial activity against Staphylococcus aureus MTCC 96 by paper-disk diffusion method; format: functional
Aspergillus clavatus [6] = test: Antimicrobial activity against Aspergillus clavatus MTCC 1323 by paper disk diffusion method; format: functional
Escherichia coli [7] = test: Antimicrobial activity against Escherichia coli MTCC 739 by paper disk diffusion method; format: functional
Aspergillus fumigatus [8] = test: Antimicrobial activity against Aspergillus fumigatus MTCC 343 by agar streak dilution method; format: functional
Pseudomonas aeruginosa [9] = test: Antimicrobial activity against Pseudomonas aeruginosa MTCC 741 at 100 ug/ml by paper disk diffusion method; format: functional, organism-based
Klebsiella pneumoniae [10] = test: Antimicrobial activity against Klebsiella pneumoniae MTCC 109 by paper disk diffusion method; format: functional
Aspergillus clavatus [11] = test: Antimicrobial activity against Aspergillus clavatus MTCC 1323 by agar streak dilution method; format: functional
Candida albicans [12] = test: Antimicrobial activity against Candida albicans MTCC 183 by agar streak dilution method; format: functional
Escherichia coli [13] = test: Antimicrobial activity against Escherichia coli MTCC 739 by agar streak dilution method; format: functional
Pseudomonas aeruginosa [14] = test: Antimicrobial activity against Pseudomonas aeruginosa MTCC 741 by paper disk diffusion method; format: functional
Salmonella typhi [15] = test: Antimicrobial activity against Salmonella enterica subsp. enterica serovar Typhi MTCC 733 by agar streak dilution method; format: functional
Aspergillus niger [16] = test: Antimicrobial activity against Aspergillus niger MTCC 282 by paper-disk diffusion method; format: functional
Shigella flexneri [17] = test: Antimicrobial activity against Shigella flexneri MTCC 1457 by paper disk diffusion method; format: functional
Aspergillus fumigatus [18] = test: Antimicrobial activity against Aspergillus fumigatus MTCC 343 by paper-disk diffusion method; format: functional
Bacillus cereus [19] = test: Antimicrobial activity against Bacillus cereus MTCC 619 by agar streak dilution method; format: functional
Klebsiella pneumoniae [20] = test: Antimicrobial activity against Klebsiella pneumoniae MTCC 109 by agar streak dilution method; format: functional
Bacillus cereus [21] = test: Antimicrobial activity against Bacillus cereus MTCC 619 by paper disk diffusion method; format: functional
[22] = tested on: Mycobacterium tuberculosis; test: Antimicrobial activity against Mycobacterium tuberculosis H37Rv by Lowenstein and Jensen method; format: functional; settings: for MIC: Mycobacterium tuberculosis, H37Rv
Salmonella typhi [23] = test: Antimicrobial activity against Salmonella enterica subsp. enterica serovar Typhi MTCC 733 by paper disk diffusion method; format: functional
Shigella flexneri [24] = test: Antimicrobial activity against Shigella flexneri MTCC 1457 by agar streak dilution method; format: functional
Staphylococcus aureus [25] = test: Antimicrobial activity against Staphylococcus aureus MTCC 96 by agar streak dilution method; format: functional
Proteus vulgaris [26] = test: Antimicrobial activity against Proteus vulgaris MTCC 1771 by paper disk diffusion method; format: functional
Pseudomonas aeruginosa [27] = test: Antimicrobial activity against Pseudomonas aeruginosa MTCC 741 by agar streak dilution method; format: functional

SMILES	inhibition (INH) [1] [%]	MIC [1] [µg/mL]	MIC (Aspergillus niger [2]) [µg/mL]	MIC (Proteus vulgaris [3]) [µg/mL]	inhibition zone (IZ) (Candida albicans [4]) [mm]	inhibition zone (IZ) (Staphylococcus aureus [5]) [mm]	inhibition zone (IZ) (Aspergillus clavatus [6]) [mm]	inhibition zone (IZ) (Escherichia coli [7]) [mm]	inhibition zone (IZ) (Pseudomonas aeruginosa [9])	inhibition zone (IZ) (Klebsiella pneumoniae [10]) [mm]	MIC (Candida albicans [12]) [µg/mL]	inhibition zone (IZ) (Pseudomonas aeruginosa [14]) [mm]	MIC (Salmonella typhi [15]) [µg/mL]	inhibition zone (IZ) (Aspergillus niger [16]) [mm]	inhibition zone (IZ) (Shigella flexneri [17]) [mm]	inhibition zone (IZ) (Aspergillus fumigatus [18]) [mm]	MIC (Bacillus cereus [19]) [µg/mL]	inhibition zone (IZ) (Salmonella typhi [23]) [mm]	MIC (Shigella flexneri [24]) [µg/mL]	MIC (Staphylococcus aureus [25]) [µg/mL]	further results
NC(=O)c1cnccn1 [PYRAZINAMIDE]	99	6.25 (≈ 50.8 µM)	–	–	–	–	–	–	–	–	–	–	–	–	–	–	–	–	–	–	–
N#Cc1ccc(Nc2nc(Oc3ncnc4ccccc34)nc(N3CCN(c4cccc(Cl)c4Cl)CC3)n2)cc1C(F)(F)F	99	6.25 (≈ 9.79 µM)	6.25 (≈ 9.79 µM)	6.25 (≈ 9.79 µM)	27	29	23	24	inactive	24	6.25 (≈ 9.79 µM)	24	12.5 (≈ 19.6 µM)	25	26	23	6.25 (≈ 9.79 µM)	26	12.5 (≈ 19.6 µM)	3.12 (≈ 4.89 µM)	MIC (Aspergillus fumigatus [8]): 25 µg/mL (≈ 39.2 µM); MIC (Aspergillus clavatus [11]): 25 µg/mL (≈ 39.2 µM); MIC (Escherichia coli [13]): 50 µg/mL (≈ 78.3 µM); MIC (Klebsiella pneumoniae [20]): 50 µg/mL (≈ 78.3 µM); inhibition zone (IZ) (Bacillus cereus [21]): 25 mm; inhibition (percent inhibition) [22]: 99%; MIC [22]: 6.25 µg/mL (≈ 9.79 µM); inhibition zone (IZ) (Proteus vulgaris [26]): 26 mm; MIC (Pseudomonas aeruginosa [27]): 12.5 µg/mL (≈ 19.6 µM)
CC1CC(C)CN(c2nc(Nc3ccc(C#N)c(C(F)(F)F)c3)nc(Oc3ncnc4ccccc34)n2)C1 (centres undefined)	99	6.25 (≈ 12 µM)	25 (≈ 48 µM)	6.25 (≈ 12 µM)	24	27	25	27	inactive	26	25 (≈ 48 µM)	27	25 (≈ 48 µM)	22	22	23	12.5 (≈ 24 µM)	26	100 (≈ 192 µM)	6.25 (≈ 12 µM)	MIC (Aspergillus fumigatus [8]): 25 µg/mL (≈ 48 µM); MIC (Aspergillus clavatus [11]): 6.25 µg/mL (≈ 12 µM); MIC (Escherichia coli [13]): 6.25 µg/mL (≈ 12 µM); MIC (Klebsiella pneumoniae [20]): 6.25 µg/mL (≈ 12 µM); inhibition zone (IZ) (Bacillus cereus [21]): 26 mm; inhibition (percent inhibition) [22]: 99%; MIC [22]: 6.25 µg/mL (≈ 12 µM); inhibition zone (IZ) (Proteus vulgaris [26]): 26 mm; MIC (Pseudomonas aeruginosa [27]): 12.5 µg/mL (≈ 24 µM)
COc1ccc(CN2CCN(c3nc(Nc4ccc(C#N)c(C(F)(F)F)c4)nc(Oc4ncnc5ccccc45)n3)CC2)c(OC)c1OC	99	6.25 (≈ 9.28 µM)	6.25 (≈ 9.28 µM)	6.25 (≈ 9.28 µM)	26	29	25	28	inactive	26	12.5 (≈ 18.6 µM)	26	25 (≈ 37.1 µM)	25	24	25	3.12 (≈ 4.63 µM)	25	25 (≈ 37.1 µM)	3.12 (≈ 4.63 µM)	MIC (Aspergillus fumigatus [8]): 6.25 µg/mL (≈ 9.28 µM); MIC (Aspergillus clavatus [11]): 6.25 µg/mL (≈ 9.28 µM); MIC (Escherichia coli [13]): 6.25 µg/mL (≈ 9.28 µM); MIC (Klebsiella pneumoniae [20]): 6.25 µg/mL (≈ 9.28 µM); inhibition zone (IZ) (Bacillus cereus [21]): 27 mm; inhibition (percent inhibition) [22]: 99%; MIC [22]: 6.25 µg/mL (≈ 9.28 µM); inhibition zone (IZ) (Proteus vulgaris [26]): 25 mm; MIC (Pseudomonas aeruginosa [27]): 12.5 µg/mL (≈ 18.6 µM)
CO[C@H]1/C=C/O[C@@]2(C)Oc3c(C)c(O)c4c(O)c(c(/C=N/N5CCN(C)CC5)c(O)c4c3C2=O)NC(=O)/C(C)=C\C=C\[C@H](C)[C@H](O)[C@@H](C)[C@@H](O)[C@@H](C)[C@H](OC(C)=O)[C@@H]1C [RIFAMPIN]	99	0.25 (≈ 0.304 µM)	–	–	–	–	–	–	–	–	–	–	–	–	–	–	–	–	–	–	–
CC[C@@H](CO)NCCN[C@@H](CC)CO [ETHAMBUTOL]	99	3.12 (≈ 15.3 µM)	–	–	–	–	–	–	–	–	–	–	–	–	–	–	–	–	–	–	–
O=C(O)c1cn(C2CC2)c2cc(N3CCNCC3)c(F)cc2c1=O [CIPROFLOXACIN]	–	–	1.56 (≈ 4.71 µM)	0.39 (≈ 1.18 µM)	33	30	–	32	inactive	33	1.56 (≈ 4.71 µM)	33	0.39 (≈ 1.18 µM)	30	32	29	0.39 (≈ 1.18 µM)	30	1.56 (≈ 4.71 µM)	1.56 (≈ 4.71 µM)	–
N#Cc1ccc(Nc2nc(Oc3ncnc4ccccc34)nc(N3CCN(C(c4ccccc4)c4ccc(Cl)cc4)CC3)n2)cc1C(F)(F)F (centres undefined)	99	6.25 (≈ 9 µM)	12.5 (≈ 18 µM)	50 (≈ 72 µM)	24	29	24	26	inactive	24	25 (≈ 36 µM)	28	6.25 (≈ 9 µM)	24	24	24	6.25 (≈ 9 µM)	27	50 (≈ 72 µM)	6.25 (≈ 9 µM)	MIC (Aspergillus fumigatus [8]): 12.5 µg/mL (≈ 18 µM); MIC (Aspergillus clavatus [11]): 12.5 µg/mL (≈ 18 µM); MIC (Escherichia coli [13]): 25 µg/mL (≈ 36 µM); MIC (Klebsiella pneumoniae [20]): 25 µg/mL (≈ 36 µM); inhibition zone (IZ) (Bacillus cereus [21]): 26 mm; inhibition (percent inhibition) [22]: 99%; MIC [22]: 6.25 µg/mL (≈ 9 µM); inhibition zone (IZ) (Proteus vulgaris [26]): 23 mm; MIC (Pseudomonas aeruginosa [27]): 6.25 µg/mL (≈ 9 µM)
N#Cc1ccc(Nc2nc(Oc3ncnc4ccccc34)nc(N3CCN(c4cccc(C(F)(F)F)c4)CC3)n2)cc1C(F)(F)F	99	6.25 (≈ 9.8 µM)	3.12 (≈ 4.89 µM)	6.25 (≈ 9.8 µM)	27	29	25	25	inactive	25	6.25 (≈ 9.8 µM)	28	25 (≈ 39.2 µM)	26	27	24	3.12 (≈ 4.89 µM)	25	12.5 (≈ 19.6 µM)	3.12 (≈ 4.89 µM)	MIC (Aspergillus fumigatus [8]): 12.5 µg/mL (≈ 19.6 µM); MIC (Aspergillus clavatus [11]): 6.25 µg/mL (≈ 9.8 µM); MIC (Escherichia coli [13]): 25 µg/mL (≈ 39.2 µM); MIC (Klebsiella pneumoniae [20]): 6.25 µg/mL (≈ 9.8 µM); inhibition zone (IZ) (Bacillus cereus [21]): 28 mm; inhibition (percent inhibition) [22]: 99%; MIC [22]: 6.25 µg/mL (≈ 9.8 µM); inhibition zone (IZ) (Proteus vulgaris [26]): 26 mm; MIC (Pseudomonas aeruginosa [27]): 6.25 µg/mL (≈ 9.8 µM)
NNC(=O)c1ccncc1 [ISONIAZID]	–	0.2 (≈ 1.46 µM)	–	–	–	–	–	–	–	–	–	–	–	–	–	–	–	–	–	–	–
